From article PMC9021288 (Nature Communications, 2022)
Converted amounts (≈) assume the structure as drawn. “And” between values parts separate entries of the source, which are not always exact repeats. Equal entries are not always repeated. Where two headings read alike, the source gives them in different places.

Assays:
[1] = target: T1, panel of human receptors and channels (Homo sapiens, UniProt P0DMS8); format: binding; details: A3 (h) (agonist radioligand); Rep1, Rep2, Mean
T1 construct: purchased Eurofins CEREP
T1 sequence (P0DMS8 whole entry): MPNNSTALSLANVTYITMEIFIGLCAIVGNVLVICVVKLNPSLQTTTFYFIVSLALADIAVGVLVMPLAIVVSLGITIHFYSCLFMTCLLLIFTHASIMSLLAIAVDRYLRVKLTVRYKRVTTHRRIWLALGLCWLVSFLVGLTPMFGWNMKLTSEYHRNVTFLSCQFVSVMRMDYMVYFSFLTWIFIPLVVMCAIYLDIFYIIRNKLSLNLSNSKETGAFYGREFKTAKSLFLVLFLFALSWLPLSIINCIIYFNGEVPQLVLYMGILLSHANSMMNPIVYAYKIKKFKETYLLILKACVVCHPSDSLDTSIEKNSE

[2] = target: T2, panel of human receptors and channels (Homo sapiens, UniProt P32239); format: binding; details: CCK2 (CCKB) (h) (agonist radioligand); Rep1, Rep2, Mean
T2 construct: purchased Eurofins CEREP
T2 sequence (P32239 whole entry): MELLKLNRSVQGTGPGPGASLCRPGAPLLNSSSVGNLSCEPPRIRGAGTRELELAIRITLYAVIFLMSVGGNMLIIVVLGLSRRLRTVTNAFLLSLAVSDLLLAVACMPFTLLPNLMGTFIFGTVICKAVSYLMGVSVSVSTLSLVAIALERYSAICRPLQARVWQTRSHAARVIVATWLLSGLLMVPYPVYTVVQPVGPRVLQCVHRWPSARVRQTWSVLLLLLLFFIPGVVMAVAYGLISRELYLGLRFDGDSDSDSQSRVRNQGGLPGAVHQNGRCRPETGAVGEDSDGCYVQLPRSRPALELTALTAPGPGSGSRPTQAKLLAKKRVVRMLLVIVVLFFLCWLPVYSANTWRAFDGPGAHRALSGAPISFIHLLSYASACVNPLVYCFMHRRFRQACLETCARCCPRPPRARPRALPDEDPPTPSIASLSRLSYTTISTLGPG

[3] = target: T3, panel of human receptors and channels (Homo sapiens, UniProt P50052); format: binding; details: AT2 (h) (agonist radioligand); Rep1, Rep2, Mean
T3 construct: purchased Eurofins CEREP

[4] = target: T4, panel of human receptors and channels (Homo sapiens, UniProt P35367); format: binding; details: H1 (h) (antagonist radioligand); Rep1, Rep2, Mean
T4 construct: purchased Eurofins CEREP
T4 sequence (P35367 whole entry): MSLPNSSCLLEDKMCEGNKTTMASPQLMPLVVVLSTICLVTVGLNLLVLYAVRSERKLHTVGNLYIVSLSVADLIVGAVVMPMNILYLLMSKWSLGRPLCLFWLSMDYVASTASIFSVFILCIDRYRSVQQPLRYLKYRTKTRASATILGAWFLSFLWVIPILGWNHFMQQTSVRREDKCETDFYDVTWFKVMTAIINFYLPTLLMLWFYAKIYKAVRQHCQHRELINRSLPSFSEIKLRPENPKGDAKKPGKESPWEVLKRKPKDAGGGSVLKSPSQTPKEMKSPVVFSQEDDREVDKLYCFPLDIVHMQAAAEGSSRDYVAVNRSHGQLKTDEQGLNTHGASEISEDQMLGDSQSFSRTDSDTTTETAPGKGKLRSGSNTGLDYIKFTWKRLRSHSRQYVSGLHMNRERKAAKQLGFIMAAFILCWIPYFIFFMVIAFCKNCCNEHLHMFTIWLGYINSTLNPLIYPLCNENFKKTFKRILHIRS

[5] = target: T5, panel of human receptors and channels (Homo sapiens, UniProt P23975); format: binding; details: norepinephrine transporter (h) (antagonist radioligand); Rep1, Rep2, Mean
T5 construct: purchased Eurofins CEREP

[6] = target: T6, panel of human receptors and channels (Homo sapiens, UniProt P32238); format: binding; details: CCK1 (CCKA) (h) (agonist radioligand); Rep1, Rep2, Mean
T6 construct: purchased Eurofins CEREP

[7] = target: T7, panel of human receptors and channels (Homo sapiens, UniProt P21728); format: binding; details: D1 (h) (antagonist radioligand); Rep1, Rep2, Mean
T7 construct: purchased Eurofins CEREP
T7 sequence (P21728 whole entry): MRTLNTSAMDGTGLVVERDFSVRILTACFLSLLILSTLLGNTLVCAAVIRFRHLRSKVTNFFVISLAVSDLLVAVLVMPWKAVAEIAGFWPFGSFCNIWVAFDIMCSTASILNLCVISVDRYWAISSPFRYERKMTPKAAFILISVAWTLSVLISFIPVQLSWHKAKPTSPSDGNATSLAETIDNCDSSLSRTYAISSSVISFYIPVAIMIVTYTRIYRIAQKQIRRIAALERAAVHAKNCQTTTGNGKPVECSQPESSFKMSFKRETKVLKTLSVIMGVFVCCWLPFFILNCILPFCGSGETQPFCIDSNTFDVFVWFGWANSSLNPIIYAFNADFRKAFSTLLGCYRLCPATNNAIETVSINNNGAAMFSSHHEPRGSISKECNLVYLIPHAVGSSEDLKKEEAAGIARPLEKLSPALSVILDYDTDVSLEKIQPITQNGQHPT

[8] = target: T8, panel of human receptors and channels (Homo sapiens, UniProt P21917); format: binding; details: D4.4 (h) (antagonist radioligand); Rep1, Rep2, Mean
T8 construct: purchased Eurofins CEREP
T8 sequence (P21917 whole entry): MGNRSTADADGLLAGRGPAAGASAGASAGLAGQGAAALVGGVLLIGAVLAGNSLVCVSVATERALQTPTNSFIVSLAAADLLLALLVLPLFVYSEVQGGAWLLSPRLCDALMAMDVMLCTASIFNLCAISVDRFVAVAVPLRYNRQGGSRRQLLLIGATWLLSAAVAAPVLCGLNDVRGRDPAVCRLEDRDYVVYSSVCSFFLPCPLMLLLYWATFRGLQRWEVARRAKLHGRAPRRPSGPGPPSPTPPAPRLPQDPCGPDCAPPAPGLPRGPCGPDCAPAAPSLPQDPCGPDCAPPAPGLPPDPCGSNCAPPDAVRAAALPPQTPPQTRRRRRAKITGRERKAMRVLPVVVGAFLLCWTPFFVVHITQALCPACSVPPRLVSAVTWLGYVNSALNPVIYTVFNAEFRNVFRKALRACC

[9] = tested on: panel of human receptors and channels; format: binding; details: for % Inhibition of Control Specific Binding: Rep1, Rep2, Mean
[10] = target: T9, panel of human receptors and channels (Homo sapiens, UniProt P08588); format: binding; details: β1 (h) (agonist radioligand); Rep1, Rep2, Mean
T9 construct: purchased Eurofins CEREP
T9 sequence (P08588 whole entry): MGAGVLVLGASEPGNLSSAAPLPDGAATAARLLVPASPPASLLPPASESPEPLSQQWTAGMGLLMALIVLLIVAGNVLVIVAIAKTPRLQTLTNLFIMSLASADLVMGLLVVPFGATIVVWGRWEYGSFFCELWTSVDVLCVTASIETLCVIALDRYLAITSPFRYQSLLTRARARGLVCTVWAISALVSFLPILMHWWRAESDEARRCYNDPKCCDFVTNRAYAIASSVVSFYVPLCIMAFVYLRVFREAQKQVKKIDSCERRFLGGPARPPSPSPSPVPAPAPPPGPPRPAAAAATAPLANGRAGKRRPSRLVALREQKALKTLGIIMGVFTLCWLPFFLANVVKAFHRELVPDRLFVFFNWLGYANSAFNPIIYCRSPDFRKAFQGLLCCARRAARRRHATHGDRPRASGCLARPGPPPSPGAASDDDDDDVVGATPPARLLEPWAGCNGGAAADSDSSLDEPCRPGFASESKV

[11] = target: T10, panel of human receptors and channels (Homo sapiens, UniProt P25101); format: binding; details: ETA (h) (agonist radioligand); Rep1, Rep2, Mean
T10 construct: purchased Eurofins CEREP
T10 sequence (P25101 21-427): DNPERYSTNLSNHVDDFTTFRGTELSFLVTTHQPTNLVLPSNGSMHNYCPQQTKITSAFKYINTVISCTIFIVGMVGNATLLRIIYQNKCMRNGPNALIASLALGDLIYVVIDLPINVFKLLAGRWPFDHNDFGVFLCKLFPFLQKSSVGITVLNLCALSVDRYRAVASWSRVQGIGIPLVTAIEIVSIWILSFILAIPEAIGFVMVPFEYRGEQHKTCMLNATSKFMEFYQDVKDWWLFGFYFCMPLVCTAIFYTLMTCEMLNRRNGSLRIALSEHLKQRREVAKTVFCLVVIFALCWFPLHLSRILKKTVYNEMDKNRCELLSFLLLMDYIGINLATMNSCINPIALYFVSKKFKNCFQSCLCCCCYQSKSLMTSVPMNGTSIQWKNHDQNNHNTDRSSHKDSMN

[12] = target: T11, panel of human receptors and channels (Homo sapiens, UniProt P04150); format: binding; details: GR (h) (agonist radioligand); Rep1, Rep2, Mean
T11 construct: purchased Eurofins CEREP

[13] = target: T12, panel of human receptors and channels (Homo sapiens, UniProt P29371); format: binding; details: NK3 (h) (antagonist radioligand); Rep1, Rep2, Mean
T12 construct: purchased Eurofins CEREP
T12 sequence (P29371 whole entry): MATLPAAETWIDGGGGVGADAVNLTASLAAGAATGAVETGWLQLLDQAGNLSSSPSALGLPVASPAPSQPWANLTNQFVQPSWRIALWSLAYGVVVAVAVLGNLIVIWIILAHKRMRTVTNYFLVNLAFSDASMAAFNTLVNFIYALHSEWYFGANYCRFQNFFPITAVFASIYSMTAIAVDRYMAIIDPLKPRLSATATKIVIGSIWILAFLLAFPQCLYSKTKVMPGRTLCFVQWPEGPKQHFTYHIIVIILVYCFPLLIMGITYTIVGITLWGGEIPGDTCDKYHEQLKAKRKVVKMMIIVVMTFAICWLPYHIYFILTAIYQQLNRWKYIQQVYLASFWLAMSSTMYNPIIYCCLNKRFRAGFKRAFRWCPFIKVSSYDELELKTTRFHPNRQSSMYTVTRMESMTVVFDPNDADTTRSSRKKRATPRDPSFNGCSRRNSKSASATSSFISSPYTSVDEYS

[14] = target: T13, panel of human receptors and channels (Homo sapiens, UniProt P25021); format: binding; details: H2 (h) (antagonist radioligand); Rep1, Rep2, Mean
T13 construct: purchased Eurofins CEREP
T13 sequence (P25021 whole entry): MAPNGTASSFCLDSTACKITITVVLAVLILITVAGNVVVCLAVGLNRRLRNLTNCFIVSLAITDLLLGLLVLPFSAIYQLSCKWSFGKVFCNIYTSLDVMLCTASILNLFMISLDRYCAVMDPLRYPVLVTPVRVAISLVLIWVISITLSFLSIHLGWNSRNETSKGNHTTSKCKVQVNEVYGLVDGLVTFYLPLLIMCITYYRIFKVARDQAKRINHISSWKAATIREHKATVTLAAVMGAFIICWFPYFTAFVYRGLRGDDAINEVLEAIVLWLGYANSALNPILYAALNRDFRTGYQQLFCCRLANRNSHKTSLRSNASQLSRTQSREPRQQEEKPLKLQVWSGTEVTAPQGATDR

[15] = target: T14, panel of human receptors and channels (Homo sapiens, UniProt P34998); format: binding; details: CRF1 (h) (agonist radioligand); Rep1, Rep2, Mean
T14 construct: purchased Eurofins CEREP

[16] = target: T15, panel of human receptors and channels (Homo sapiens, UniProt Q9Y5N1); format: binding; details: H3 (h) (agonist radioligand); Rep1, Rep2, Mean
T15 construct: purchased Eurofins CEREP
T15 sequence (Q9Y5N1 whole entry): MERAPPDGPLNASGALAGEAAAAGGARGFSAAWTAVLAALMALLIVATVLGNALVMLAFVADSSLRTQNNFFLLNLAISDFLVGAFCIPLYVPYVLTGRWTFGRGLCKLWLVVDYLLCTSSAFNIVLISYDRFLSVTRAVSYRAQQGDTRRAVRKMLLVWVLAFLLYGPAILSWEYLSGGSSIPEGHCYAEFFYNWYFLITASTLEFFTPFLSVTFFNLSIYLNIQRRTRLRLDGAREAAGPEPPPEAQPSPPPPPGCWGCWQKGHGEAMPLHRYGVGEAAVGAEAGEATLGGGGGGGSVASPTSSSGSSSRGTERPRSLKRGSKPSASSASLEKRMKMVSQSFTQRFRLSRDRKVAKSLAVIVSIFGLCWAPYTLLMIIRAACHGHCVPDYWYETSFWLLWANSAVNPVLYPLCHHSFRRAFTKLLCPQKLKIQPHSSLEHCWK

[17] = target: T16, panel of human receptors and channels (Homo sapiens, UniProt P43681); format: binding; details: N neuronal α4β2 (h) (agonist radioligand); Rep1, Rep2, Mean
T16 construct: purchased Eurofins CEREP
T16 sequence (P43681 27-627): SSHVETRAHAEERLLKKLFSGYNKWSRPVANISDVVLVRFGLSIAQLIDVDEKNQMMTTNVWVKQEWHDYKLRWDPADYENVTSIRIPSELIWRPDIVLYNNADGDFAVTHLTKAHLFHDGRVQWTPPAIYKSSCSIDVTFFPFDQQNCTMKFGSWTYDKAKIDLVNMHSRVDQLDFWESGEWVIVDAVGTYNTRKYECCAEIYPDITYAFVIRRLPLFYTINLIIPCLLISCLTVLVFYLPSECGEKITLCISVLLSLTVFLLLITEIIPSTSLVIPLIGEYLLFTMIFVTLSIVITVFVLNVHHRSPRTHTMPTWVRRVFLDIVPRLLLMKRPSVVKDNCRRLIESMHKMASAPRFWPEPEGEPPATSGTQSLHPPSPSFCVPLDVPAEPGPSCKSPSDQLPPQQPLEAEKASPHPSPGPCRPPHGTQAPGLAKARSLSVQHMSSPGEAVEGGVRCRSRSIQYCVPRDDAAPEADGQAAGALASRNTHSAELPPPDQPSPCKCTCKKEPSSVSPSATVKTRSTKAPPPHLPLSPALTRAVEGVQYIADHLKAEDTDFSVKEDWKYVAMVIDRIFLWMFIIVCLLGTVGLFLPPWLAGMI

[18] = tested on: P. falciparum Pf3D7^0087/N9 and Pf3D7^20161128TAD17N214; assay: PKPD efficacy studies in humanized NSG mice and PD model; format: in vivo, Plasmodium falciparum
Procedure: The experimental designs are summarized in Supplementary Table 30. […] Samples were processed under liquid-liquid extraction methods and analyzed by LC-MS/MS for quantitation in a Waters UPLC-TQD (Micromass, Manchester, UK).
Data preparation, exploration and model pre- and postprocessing were performed using R (version 3.6.3) and R package IQRtools (version 1.2.1 IntiQuan GmbH). Non-linear mixed-effects (NLME) modeling was used to estimate the PK and PD parameters using Monolix (Lixoft version MLX2018R2). The population PKPD model was developed with a two-stage approach: first, a population PK model was determined; then, the individual PK parameters were used as regression parameters and the PD parameters were estimated. The PD model consists of the balance between a parasite net growth rate and a drug killing rate. […] The growth rate of log-transformed parasite concentration was fixed at 0.03 /h based on prior experiments but estimating growth rate interindividual variability. Different Hill coefficients were tested.

hERG channel = target: T17, hERG channel (Homo sapiens, UniProt Q12809); assay: Automated patch clamp (Qpatch); format: cell-based
T17 construct: Metrion Biosciences
Procedure: Safety studies were performed by commercial services using their standard protocols. […] Genotoxicity was investigated using the Ames test (Bacterial Reverse Mutation Assay) (Covance Laboratories Ltd, North Yorkshire, England). In vitro mammalian cell micronucleus screening assay was studied in human peripheral blood lymphocytes (BioReliance Corporation, Rockville, USA). Cardiotoxicity was determined against the hERG channel in an automated patch clamp assay using the Qpatch or against the hNaV 1.5, hKV 1.5 and hCaV 1.2 using a manual patch-clamp technique (Metrion Biosciences, Cambridge, UK). Cytotoxicity in human and rat primary hepatocytes was assessed using the CellTiter-Blue assay performed by commercial services (KaLy-Cell). The viability of HepG2 cells was monitored through the addition of 1 mM resazurin. Following 6 h incubation, the relative amount of reduced resazurin was detected in a fluorimeter and compared to the assay controls (vehicle: 0.1% DMSO and positive control: 10 µM puromycin).

[19] = Plasma protein binding, mouse

Q: Which results are given for C[C@@H](CNC(=O)[C@H](O)C(C)(C)CO)NC(=O)c1cc(F)c(F)cc1F [MMV693183]?
A: % Inhibition of Control Specific Binding [1]: -6.2% and -3.3% and -4.75%; % Inhibition of Control Specific Binding [2]: 10.5% and 16.3% and 13.4%; % Inhibition of Control Specific Binding [3]: 7.4%; % Inhibition of Control Specific Binding [4]: 6.2% and 8% and 7.1%; % Inhibition of Control Specific Binding [5]: -1.3% and -5.4% and -3.35%; % Inhibition of Control Specific Binding [6]: -13.7% and -11% and -12.35%; % Inhibition of Control Specific Binding [7]: -2.9% and 0.3% and -1.3%; % Inhibition of Control Specific Binding [8]: -1.9% and 2.9% and 0.5%; induction, GABA (non-selective) ([9]; 10 µM): 25.2%; inhibition in cross-reactivity panel of human receptors, enzymes, or channels ([9]; 10 µM): < 50%; inhibition/induction, all other binding assays ([9]; 10 µM): less than 25%; % Inhibition of Control Specific Binding ([9]; AMPA (agonist radioligand)): -3.3% and 6.3% and 1.5%; % Inhibition of Control Specific Binding ([9]; BZD (central) (agonist radioligand)): -6% and -2.2% and -4.1%; % Inhibition of Control Specific Binding ([9]; Ca2+ channel (L, dihydropyridine site) (antagonist radioligand)): -8.8% and -2.1% and -5.45%; % Inhibition of Control Specific Binding ([9]; Ca2+ channel (L, diltiazem site) (benzothiazepines) (antagonist radioligand)): -0.7% and -8.5% and -4.6%; % Inhibition of Control Specific Binding ([9]; Ca2+ channel (L, verapamil site) (phenylalkylamine) (antagonist radioligand)): -8.2% and -3.1% and -5.65%; % Inhibition of Control Specific Binding ([9]; Cl- channel (GABA-gated) (antagonist radioligand)): 3.7% and 11.5% and 7.6%; % Inhibition of Control Specific Binding ([9]; D2S (h) (antagonist radioligand)): 8.5% and 10.6% and 9.55%; % Inhibition of Control Specific Binding ([9]; GABA transporter (antagonist radioligand)): -5.4% and -8% and -6.7%; % Inhibition of Control Specific Binding ([9]; IP (PGI2) (h) (agonist radioligand)): 1.7% and -1% and 0.35%; % Inhibition of Control Specific Binding ([9]; KV channel (antagonist radioligand)): 1.3% and -0.6% and 0.35%; % Inhibition of Control Specific Binding ([9]; MT1 (ML1A) (h) (agonist radioligand)): -0.2% and 6.2% and 3%; % Inhibition of Control Specific Binding ([9]; NMDA (antagonist radioligand)): -6% and -8.3% and -7.15%; % Inhibition of Control Specific Binding ([9]; Na+ channel (site 2) (antagonist radioligand)): 17.2% and 13.3% and 15.25%; % Inhibition of Control Specific Binding ([9]; P2Y (agonist radioligand)): -7.4% and -3% and -5.2%; % Inhibition of Control Specific Binding ([9]; SKCa channel (antagonist radioligand)): -1.2% and 2.1% and 0.45%; % Inhibition of Control Specific Binding ([9]; Y (non-selective) (agonist radioligand)): -24.9% and -15.9% and -20.4%; % Inhibition of Control Specific Binding ([9]; kainate (agonist radioligand)): -0.8% and 7.7% and 3.45%; % Inhibition of Control Specific Binding ([9]; opioid (non-selective) (antagonist radioligand)): 4.1% and 0.3% and 2.2%; % Inhibition of Control Specific Binding ([9]; α1 (non-selective) (antagonist radioligand)): 2.6% and 11.7% and 7.15%; % Inhibition of Control Specific Binding ([9]; α2 (non-selective) (antagonist radioligand)): -11.5% and -12.5% and -12%; % Inhibition of Control Specific Binding [10]: 13.7% and 4.9% and 9.3%; % Inhibition of Control Specific Binding [11]: -8.1% and -6.5% and -7.3%; % Inhibition of Control Specific Binding [12]: -7.3%; % Inhibition of Control Specific Binding [13]: -0.9% and 5.3% and 2.2%; % Inhibition of Control Specific Binding [14]: -9.2% and -5.1% and -7.15%; % Inhibition of Control Specific Binding [15]: 16.8% and 10.5% and 13.65%; % Inhibition of Control Specific Binding [16]: -9.8% and -18.8% and -14.3%; % Inhibition of Control Specific Binding [17]: -14.6% and -4.9% and -9.75%; EC50, concentration achieving 50percent of maximum effect ([18]; PD model estimate): 11.5 ng/mL; MIC ([18]; PKPD model): 3.2 ng/mL (≈ 8.83 nM); MPC90 ([18]; PKPD model): 38.4 ng/mL; ED90 ([18]; in vivo): 4.4 mg/kg; time at which 3D7 parasites were cleared ([18]; single-dose groups): 4 to 6 days; IC50 (hERG channel): > 10 µM; plasma protein binding [19]: 33%
